These results are taken from US9926297B2, “Bicyclic AZA compounds as muscarinic M1 receptor and/or M4 receptor agonists” (Heptares Therapeutics Limited, priority 2014, dated 2018).

A word on the Emax: it is the size of the effect at its maximum, as opposed to the concentration needed.

Assay [1] deals with T1, human muscarinic M2 receptor (Homo sapiens, UniProt P08172).
T1 sequence (P08172 1-466): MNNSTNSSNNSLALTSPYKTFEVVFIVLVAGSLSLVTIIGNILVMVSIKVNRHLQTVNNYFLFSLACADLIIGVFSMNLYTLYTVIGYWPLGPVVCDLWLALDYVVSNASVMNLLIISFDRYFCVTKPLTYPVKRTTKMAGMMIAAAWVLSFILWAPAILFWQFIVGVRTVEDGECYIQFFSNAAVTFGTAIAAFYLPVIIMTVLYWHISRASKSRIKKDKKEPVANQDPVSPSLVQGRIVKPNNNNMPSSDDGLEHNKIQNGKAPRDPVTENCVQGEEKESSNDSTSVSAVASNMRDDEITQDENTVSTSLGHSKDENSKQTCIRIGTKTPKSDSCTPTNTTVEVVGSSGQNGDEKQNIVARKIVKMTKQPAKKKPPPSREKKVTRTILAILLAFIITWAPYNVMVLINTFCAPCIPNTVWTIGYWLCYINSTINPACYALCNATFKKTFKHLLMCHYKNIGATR
Description: Alphascreen Surefire phospho-ERK1/2 functional assay, M2. The conditions noted are these: for Emax: CHO, read-out: % Emax cf. ACh, M2, CHO cells stably expressing human M2. A general note: Alpha assays give light when donor and acceptor beads are brought close together.
Description: CHO cells stably expressing the human muscarinic M1, M2, M3 or M4 receptor were plated (25K/well) onto 96-well tissue culture plates in MEM-alpha+10% dialysed FBS. Once adhered, cells were serum-starved overnight. Agonist stimulation was performed by the addition of 5 μL agonist to the cells for 5 min (37° C.). Media was removed and 50 μL of lysis buffer added. After 15 min, a 4 μL sample was transferred to 384-well plate and 7 μL of detection mixture added. Plates were incubated for 2 h with gentle agitation in the dark and then read on a PHERAstar plate reader.
pEC50 and Emax figures were calculated from the resulting data for each receptor subtype.

For assay [2], the target named is human muscarinic M3 receptor (Homo sapiens, UniProt P20309). Put plainly: Alphascreen Surefire phospho-ERK1/2 functional assay, M3. The conditions noted are these: for Emax: CHO, read-out: % Emax cf. ACh, M3, CHO cells stably expressing human M3, relative to ACh; for EC50: pEC50 M3, CHO cells stably expressing human M3, phospho-ERK1/2, * = variable results.
Sequence of human muscarinic M3 receptor (P20309 whole entry): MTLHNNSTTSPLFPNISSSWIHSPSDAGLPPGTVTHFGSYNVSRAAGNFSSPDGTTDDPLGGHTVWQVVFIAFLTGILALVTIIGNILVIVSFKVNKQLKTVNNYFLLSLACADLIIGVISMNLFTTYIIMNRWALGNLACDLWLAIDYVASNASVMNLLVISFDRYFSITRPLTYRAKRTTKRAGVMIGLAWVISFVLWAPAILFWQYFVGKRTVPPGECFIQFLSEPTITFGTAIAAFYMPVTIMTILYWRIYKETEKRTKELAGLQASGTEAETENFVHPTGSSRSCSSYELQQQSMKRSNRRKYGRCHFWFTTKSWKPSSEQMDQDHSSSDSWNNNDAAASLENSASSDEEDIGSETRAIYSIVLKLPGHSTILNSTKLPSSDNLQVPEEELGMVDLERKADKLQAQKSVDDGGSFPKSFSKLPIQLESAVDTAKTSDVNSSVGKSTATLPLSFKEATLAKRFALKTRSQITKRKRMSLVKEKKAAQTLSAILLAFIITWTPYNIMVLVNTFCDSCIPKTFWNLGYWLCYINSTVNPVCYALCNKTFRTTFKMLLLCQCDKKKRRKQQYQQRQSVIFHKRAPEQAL
Assay [3] deals with T2, human muscarinic M1 receptor (Homo sapiens, UniProt P11229).
T2 sequence (P11229 1-460): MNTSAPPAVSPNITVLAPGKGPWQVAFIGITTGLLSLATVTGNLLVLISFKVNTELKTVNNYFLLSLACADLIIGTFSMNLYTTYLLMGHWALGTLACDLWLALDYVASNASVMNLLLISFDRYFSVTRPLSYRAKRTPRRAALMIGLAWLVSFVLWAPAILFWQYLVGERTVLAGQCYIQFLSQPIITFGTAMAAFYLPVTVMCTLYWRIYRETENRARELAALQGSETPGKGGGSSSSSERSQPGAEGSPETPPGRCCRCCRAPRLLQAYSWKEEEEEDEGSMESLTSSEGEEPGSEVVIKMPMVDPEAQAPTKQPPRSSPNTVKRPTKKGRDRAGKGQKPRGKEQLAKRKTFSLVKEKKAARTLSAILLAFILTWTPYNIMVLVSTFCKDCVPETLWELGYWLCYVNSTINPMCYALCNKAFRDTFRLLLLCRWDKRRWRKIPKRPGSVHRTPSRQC
Put plainly: Alphascreen Surefire phospho-ERK1/2 functional assay, M1. Format: cell-based. The note with it: for EC50: phospho-ERK1/2, * = variable results, read-out: pEC50 M1 (converted); for Emax: CHO, read-out: % Emax cf. ACh, M1, CHO cells stably expressing human M1.

For assay [4], the target named is T3, human muscarinic M4 receptor (Homo sapiens, UniProt P08173).
T3 construct: expressed in transfected cells
T3 sequence (P08173 1-479): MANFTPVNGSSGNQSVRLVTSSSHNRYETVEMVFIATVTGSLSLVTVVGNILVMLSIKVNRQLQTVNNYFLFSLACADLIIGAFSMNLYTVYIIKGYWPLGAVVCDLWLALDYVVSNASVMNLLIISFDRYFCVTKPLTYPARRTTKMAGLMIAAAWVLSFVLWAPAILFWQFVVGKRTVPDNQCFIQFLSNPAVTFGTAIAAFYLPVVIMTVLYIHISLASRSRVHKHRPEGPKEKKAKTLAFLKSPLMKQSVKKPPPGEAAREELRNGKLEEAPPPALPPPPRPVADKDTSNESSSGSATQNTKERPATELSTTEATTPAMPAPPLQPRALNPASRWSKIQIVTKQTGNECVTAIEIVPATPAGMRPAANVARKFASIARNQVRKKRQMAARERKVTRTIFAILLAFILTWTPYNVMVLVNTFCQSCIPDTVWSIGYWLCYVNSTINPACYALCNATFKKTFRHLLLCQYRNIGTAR
Description: Alphascreen Surefire phospho-ERK1/2 functional assay, M4. Type of assay: cell-based. The note with it: for EC50: phospho-ERK1/2, * = variable results, read-out: pEC50 M4 (converted); for Emax: CHO, read-out: % Emax cf. ACh, M4, CHO cells stably expressing human M4.

Setting [5] is: CHO cells stably expressing human M1.
Setting [6] is: CHO cells stably expressing human M4.

Where only a bound is given, the exact number is not on record here.

For the molecule `COC(=O)N1CCC2(CC(N3CCC(c4nccs4)CC3)C2)C1` (single isomer, unassigned) [1-24 Isomer 2, methyl 2-[4-(1,3-thiazol-2-yl)piperidin-1-yl]-6-azaspiro[3.4]octane-6-carboxylate], the EC50 is 6310 nM in assay [1], above 20000 nM in assay [2], 251 nM in assay [3] (setting [5]) and 25.1 nM in assay [4] (setting [6]). Moreover, the Emax in assay [1] (relative to ACh) was 32%; in assay [2], 0%; in assay [3] (relative to ACh), 102%; in assay [4] (relative to ACh), 78%.

As for `CCOC(=O)N1CCC2(CC(N3CCC(c4nccs4)CC3)C2)C1` (single isomer, unassigned) [1-25 Isomer 2, ethyl 2-[4-(1,3-thiazol-2-yl)piperidin-1-yl]-6-azaspiro[3.4]octane-6-carboxylate], the EC50 in assay [1] is above 20000 nM; in assay [2], above 20000 nM; in assay [3] (setting [5]) it was 50.1 nM; in assay [4] (setting [6]) it was 3.98 nM. Further, the Emax was 15% in assay [1] (relative to ACh), 13% in assay [2], 110% in assay [3] (relative to ACh) and 128% in assay [4] (relative to ACh).

`CCOC(=O)N1CCC2(CC(N3CCC(c4nnc[nH]4)CC3)C2)C1` (single isomer, unassigned) [1-26 Isomer 2, ethyl 2-[4-(4H-1,2,4-triazol-3-yl)piperidin-1-yl]-6-azaspiro[3.4]octane-6-carboxylate]: the EC50 in assay [1] is above 20000 nM; in assay [2], 794 nM; in assay [3] (setting [5]), 2510 nM; in assay [4] (setting [6]), 200 nM. In addition, the Emax in assay [1] (relative to ACh) is 99%; in assay [2], 53%; in assay [3] (relative to ACh), 46%; in assay [4] (relative to ACh), 76%.

For the molecule `CCOC(=O)N1CCC2(CC(N3CCC(c4ncns4)CC3)C2)C1` (single isomer, unassigned) [1-30 Isomer 2, ethyl 2-[4-(1,2,4-thiadiazol-5-yl)piperidin-1-yl]-6-azaspiro[3.4]octane-6-carboxylate], the EC50 was above 20000 nM in assay [1], above 20000 nM in assay [2], 316 nM in assay [3] (setting [5]) and 12.6 nM in assay [4] (setting [6]). Further, the maximal response (Emax) was 9% in assay [1] (relative to ACh), 5% in assay [2], 37% in assay [3] (relative to ACh) and 101% in assay [4] (relative to ACh).

Regarding `CCOC(=O)N1CCC2(CC(N3CCC(n4cccc4)CC3)C2)C1` (single isomer, unassigned) [1-32 Isomer 2, ethyl 2-[4-(1H-pyrrol-1-yl)piperidin-1-yl]-6-azaspiro[3.4]octane-6-carboxylate], the EC50 in assay [1] was above 20000 nM; in assay [2], above 20000 nM; in assay [3] (setting [5]), 79.4 nM; in assay [4] (setting [6]), 6.31 nM. Besides, the maximal effect (Emax) in assay [1] (relative to ACh) was 56%; in assay [2], 16%; in assay [3] (relative to ACh), 113%; in assay [4] (relative to ACh), 126%.

With `CCOC(=O)N1CCC2(CC(N3CCC(n4cc(C)cn4)CC3)C2)C1` (single isomer, unassigned) [1-34 Isomer 1, ethyl 2-[4-(4-methyl-1H-pyrazol-1-yl)piperidin-1-yl]-6-azaspiro[3.4]octane-6-carboxylate], the EC50 in assay [1] is above 20000 nM; in assay [2], above 20000 nM; in assay [3] (setting [5]), 501 nM; in assay [4] (setting [6]), 158 nM. Besides, the “% Emax cf. ACh, M2” value in assay [1] (CHO cells stably expressing human M2, relative to ACh) turned out to be 10%. Also, in assay [2], the maximum response (Emax) amounted to 0%. In addition, in assay [3] (CHO cells stably expressing human M1, relative to ACh), the “% Emax cf. ACh, M1” value was determined as 49%. For the same molecule, the “% Emax cf. ACh, M4” value in assay [4] (CHO cells stably expressing human M4, relative to ACh) worked out at 48%.
